# Laboratory results as given in patent publication US20040102364A1, “Backbone cyclized radiolabelled somatostatin analogs” (priority 2001, published 2004).
# Where two headings read alike, the source gives them in different places.
# What was measured:
# human cloned SST-R2 = target: T1, human cloned SST-R2 (Homo sapiens, UniProt P30874); assay: Inhibition of 125I-Tyr11-SRIF binding to cloned human SST-R2 membranes (CHO cells)
# T1 construct: expressed in transfected cells; host or cells: CHO cells
# T1 sequence (P30874 whole entry): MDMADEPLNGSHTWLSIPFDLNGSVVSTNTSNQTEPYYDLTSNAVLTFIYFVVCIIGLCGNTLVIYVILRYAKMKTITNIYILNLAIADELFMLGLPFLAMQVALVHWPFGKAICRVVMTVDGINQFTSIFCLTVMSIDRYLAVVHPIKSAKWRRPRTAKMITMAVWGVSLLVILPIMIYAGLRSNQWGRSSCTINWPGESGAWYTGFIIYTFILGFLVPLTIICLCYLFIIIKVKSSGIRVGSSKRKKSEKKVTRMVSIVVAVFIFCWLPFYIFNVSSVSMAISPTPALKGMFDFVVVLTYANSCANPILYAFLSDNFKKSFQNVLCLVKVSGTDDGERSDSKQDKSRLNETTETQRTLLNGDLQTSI
# Method: (§1) The SST analogs were tested for their potency in inhibition of the binding of ^125I-Tyr^11-SRIF (based on the method described by Raynor et. al., Molecular Pharmacology 43: 838, 1993) to membrane preparations expressing the transmembranal SST receptors (SST-R1, 2, 3, 4 or 5). The receptor preparations used for these tests were either from the cloned human receptors selectively and stably expressed in Chinese Hamster Ovary (CHO) cells or from cell lines naturally expressing the SST-Rs. […] The binding reactions were filtered, the filters were washed and the bound radioactivity was counted in β counter after addition of scintillation solution.
# SST-R2 = SST-R2 (Homo sapiens, UniProt P30874); assay: Inhibition of SRIF binding to SST-R2 (species not stated); conditions: for inhibition at 10 pM: read-out: IC50 Screen SRIF Inhibited (%) 0.01 nM; for inhibition at 0.0001 µM: read-out: IC50 Screen SRIF Inhibited (%) 0.1 nM; for inhibition at 0.001 µM: read-out: IC50 Screen SRIF Inhibited (%) 1 nM
# Sequence of SST-R2 (P30874 whole entry): as above
# Method: as §1, with “solution. […]” for “solution.”
# [1] = Quick Screen, 10 nM, SST-R2, read-out: Quick Screen SRIF Inhibited (%) 10 nM
# [2] = Quick Screen, 100 nM, SST-R2, read-out: Quick Screen SRIF Inhibited (%) 100 nM
# [3] = read-out: IC50 Screen SRIF Inhibited (%) 10 nM
# [4] = read-out: IC50 Screen SRIF Inhibited (%) 100 nM
inhibition at 0.01 µM (SST-R2; [1]),inhibition at 0.1 µM (SST-R2; [2]),inhibition at 10 pM (SST-R2),inhibition at 0.0001 µM (SST-R2),inhibition at 0.001 µM (SST-R2),inhibition at 0.01 µM (SST-R2; [3]),inhibition at 0.1 µM (SST-R2; [4]),Compound,other results
–,–,–,–,–,–,–,"C[C@@H](O)[C@@H]1NC(=O)[C@H](CCCCN)NC(=O)[C@@H](Cc2c[nH]c3ccccc23)NC(=O)[C@H](Cc2ccccc2)NC(=O)[C@@H]2CSSC[C@H](NC1=O)C(=O)N([C@@H](Cc1ccccc1)C(N)=O)CCCNC(=O)CCCN(C(=O)CNC(=O)CNC(=O)CNC(=O)CS)[C@@H](Cc1ccccc1)C(=O)N2 [PTR 3261, MAG3-PheC3-Cys-Phe-(D)Trp-Lys-Thr-Cys-PheN3-NH2]","IC50 (human cloned SST-R2; human cloned SST-R2, 95% confidence interval given, read-out: IC50 calculated from the binding results of Table 3): 119 nM; IC50 (human cloned SST-R2; human cloned receptor, read-out: Concentration (nM) of SST analogs to inhibit SRIF binding by 50%, SST-R 2): 100 nM; Total Bound (3-[125I]tyrosyl11)somatostatin-14 (cpm), Run 1 (human cloned SST-R2; peptide conc. 10 nM): 8335 cpm; Total Bound (3-[125I]tyrosyl11)somatostatin-14 (cpm), Run 2 (human cloned SST-R2; peptide conc. 10 nM): 8820 cpm; Total Bound (3-[125I]tyrosyl11)somatostatin-14 (cpm), Run 3 (human cloned SST-R2; peptide conc. 10 nM): 8098 cpm; Total Bound (3-[125I]tyrosyl11)somatostatin-14 (cpm), Run 1 (human cloned SST-R2; peptide conc. 100 nM): 5398 cpm; Total Bound (3-[125I]tyrosyl11)somatostatin-14 (cpm), Run 2 (human cloned SST-R2; peptide conc. 100 nM): 5328 cpm; Total Bound (3-[125I]tyrosyl11)somatostatin-14 (cpm), Run 3 (human cloned SST-R2; peptide conc. 100 nM): 5679 cpm; Total Bound (3-[125I]tyrosyl11)somatostatin-14 (cpm), Run 1 (human cloned SST-R2; peptide conc. 1000 nM): 1941 cpm; Total Bound (3-[125I]tyrosyl11)somatostatin-14 (cpm), Run 2 (human cloned SST-R2; peptide conc. 1000 nM): 3169 cpm; Total Bound (3-[125I]tyrosyl11)somatostatin-14 (cpm), Run 3 (human cloned SST-R2; peptide conc. 1000 nM): 2024 cpm; Total Bound (3-[125I]tyrosyl11)somatostatin-14 (cpm), Run 1 (human cloned SST-R2; peptide conc. 10000 nM): 917 cpm; Total Bound (3-[125I]tyrosyl11)somatostatin-14 (cpm), Run 2 (human cloned SST-R2; peptide conc. 10000 nM): 1106 cpm; Total Bound (3-[125I]tyrosyl11)somatostatin-14 (cpm), Run 3 (human cloned SST-R2; peptide conc. 10000 nM): 2281 cpm"
65%,83%,-8.5%,-0.67%,30%,57%,86%,"C[C@@H](O)[C@@H]1NC(=O)[C@H](CCCCN)NC(=O)[C@@H](Cc2c[nH]c3ccccc23)NC(=O)[C@H](Cc2c[nH]c3ccccc23)NC(=O)[C@H](Cc2ccccc2)NC(=O)[C@@H](NC(=O)CNC(=O)CN(CCN(CCN(CC(=O)O)CC(=O)O)CC(=O)O)CC(=O)O)CCNC(=O)CCCN(CC(N)=O)C(=O)[C@H](Cc2ccccc2)NC1=O [PTR 3319, In-DTPA-Gly-Dab*-Phe-Trp-(D)Trp-Lys-Thr-Phe-GlyC3*-NH2]",–
53%,87%,-8.5%,10%,37%,69%,89%,"C[C@@H](O)[C@@H]1NC(=O)[C@H](CCCCN)NC(=O)[C@@H](Cc2c[nH]c3ccccc23)NC(=O)[C@H](Cc2c[nH]c3ccccc23)NC(=O)[C@H](Cc2ccccc2)NC(=O)[C@@H](NC(=O)CN(CCN(CCN(CC(=O)O)CC(=O)O)CC(=O)O)CC(=O)O)CCNC(=O)CCCN(CC(N)=O)C(=O)[C@H](Cc2ccccc2)NC1=O [PTR 3337, In-DTPA-Dab*-Phe-Trp-(D)Trp-Lys-Thr-Phe-GlyC3*-NH2]",–
27%,69%,-11%,3%,17%,52%,78%,"C[C@@H](O)[C@@H]1NC(=O)[C@H](CCCCN)NC(=O)[C@@H](Cc2c[nH]c3ccccc23)NC(=O)[C@H](Cc2c[nH]c3ccccc23)NC(=O)[C@H](Cc2ccccc2)NC(=O)[C@@H](NC(=O)CCNC(=O)CN(CCN(CCN(CC(=O)O)CC(=O)O)CC(=O)O)CC(=O)O)CCNC(=O)CCCN(CC(N)=O)C(=O)[C@H](Cc2ccccc2)NC1=O [PTR 3339, In-DTPA-b-Ala-Dab*-Phe-Trp-(D)Trp-Lys-Thr-Phe-GlyC3*-NH2]",–
35%,76%,-9.5%,-4.8%,12%,44%,76%,"C[C@@H](O)[C@@H]1NC(=O)[C@H](CCCCN)NC(=O)[C@@H](Cc2c[nH]c3ccccc23)NC(=O)[C@H](Cc2c[nH]c3ccccc23)NC(=O)[C@H](Cc2ccccc2)NC(=O)[C@@H](NC(=O)CCCNC(=O)CN(CCN(CCN(CC(=O)O)CC(=O)O)CC(=O)O)CC(=O)O)CCNC(=O)CCCN(CC(N)=O)C(=O)[C@H](Cc2ccccc2)NC1=O [PTR 3341, In-DTPA-GABA-Dab*-Phe-Trp-(D)Trp-Lys-Thr-Phe-GlyC3*-NH2]",–
–,–,–,–,–,–,–,In-DTPA-3-aminomethylbenzoic acid-Phe(C3**)-Cys*-Phe-(D)Trp-Lys-Thr-Cys*-Phe(N3**)-NH2 [PTR 3355],"SRIF Inhibited (%) 10 nM (SST-R2; 10 nM, SST-R2): 8%; SRIF Inhibited (%) 100 nM (SST-R2; 100 nM, SST-R2): 34%"
–,–,–,–,–,–,–,In-DTPA-5-aminopentanoic acid-Dab*-Phe-Trp-(D)Trp-Lys-Thr-Phe-GlyC3*-NH2 [PTR 3343],"IC50 Screen SRIF Inhibited (%) 0.01 nM (SST-R2; IC50 Screen, 0.01 nM, SST-R2): −16%; IC50 Screen SRIF Inhibited (%) 0.1 nM (SST-R2; IC50 Screen, 0.1 nM, SST-R2): −3.8%; IC50 Screen SRIF Inhibited (%) 1 nM (SST-R2; IC50 Screen, 1 nM, SST-R2): 10%; IC50 Screen SRIF Inhibited (%) 10 nM (SST-R2; IC50 Screen, 10 nM, SST-R2): 44%; IC50 Screen SRIF Inhibited (%) 100 nM (SST-R2; IC50 Screen, 100 nM, SST-R2): 76%; Quick Screen SRIF Inhibited (%) 10 nM (SST-R2; Quick Screen, 10 nM, SST-R2): 37%; Quick Screen SRIF Inhibited (%) 100 nM (SST-R2; Quick Screen, 100 nM, SST-R2): 79%"
